We go through three compounds from paper PMC11992225, “Antibacterial compounds against non-growing and intracellular bacteria” (npj Antimicrobials and Resistance, 2025).

Several values for one entry are separate records, joined by “and”; a condition that tells them apart may be missing. Equal entries are not always repeated. Where two headings read alike, the source gives them in different places.

The test system of assay [1] is non-growing S. aureus DSM2569. Description: Dilution-regrowth assay (OD600, start-growth-time) on stationary-phase S. aureus. Type of assay: cell-based, Staphylococcus aureus. The conditions noted are these: for OD600 at 8hr, Mean: after dilution into drug-free medium; for Regrowth, OD600 at 6h or 8h after dilution into drug-free medium: average. The method, boiled down: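 Non-growing S. aureus was tested in a dilution-regrowth format. Cells were cultured and treated for 24 h in 1:4 diluted CA-MHB, pH 7.4, then diluted into drug-free medium, and OD600 was measured every 20 min. Start-growth-time was the time OD600 passed 0.12. Dose-response curves were fitted with a five-parameter logistic equation to derive EC50.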

Assay [2] relates to non-growing S. aureus DSM2569. Put plainly: Dose-dependent killing analysis (CFU spot-plating) of stationary-phase S. aureus. The conditions noted are these: for Δlog10(CFU/ml): average killing vs before treatment (9,097); for log10(CFU/ml) after treatment: individual replicates. Type of assay: cell-based, Staphylococcus aureus. Summed up: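 Survival was scored as CFU after overnight growth at 37 °C on LB agar, using spots from 10-fold PBS dilutions of treated cultures. Non-growing S. aureus DSM2569 had been exposed to compound for 24 h in 1:4 CA-MHB, pH 7.4. Three biological replicates were run.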

In assay [3] the test system is SOS response in UPEC CFT073. Description: SOS response induction analysis, pAED2 cda' promoter mScarlet-I reporter. Type of assay: cell-based, Escherichia coli. The conditions noted are these: for induction of the SOS response in growing UPEC cultures: 6 h, MMC, BLE, ECH in 1:4 CA-MHB pH 7.4, PLI, SAT, EVO in LPM pH 5.5. Here is the method: Since we aimed to test SOS induction in non-growing cultures, it was essential to use a reporter with no leaky expression in the stationary phase. Therefore, we constructed the plasmid pAED2, based on the low copy-number plasmid pSC101, which contains the cda’ promoter in front of the mScarlet-I-encoding reporter gene.
Overnight cultures of CFT073 harboring a reporter plasmid were grown in 3 ml of LB supplemented with 100 µg/ml carbenicillin (Cb), then diluted 1:100 into the medium used for testing. For validation of the pANO1::cda’ reporter, an overnight culture was diluted into CA-MHB (supplemented with 40 mM HEPES, pH 7.4, and 100 µg/ml Cb) and grown to an OD600 ≈ 0.5 at 37 °C with shaking at 200 rpm in an Erlenmeyer flask. […] Empty wells were filled with water. […] The experiment was performed in triplicate.
For analysis of the SOS induction by anti-cancer compounds, the overnight cultures were diluted either into 1:4 diluted CA-MHB (40 mM HEPES, pH 7.4) or LPM (30 mM MES, pH 5.5) that were supplemented with 100 µg/ml Cb. For analysis of the effect on growing bacteria, the cultures were incubated at 37 °C with shaking at 200 rpm in Erlenmeyer flasks for 90 min, to an OD600 ≈ 0.5. Then, 180 μl aliquots were transferred to 96-well plates, and 20 μl of the 200 μM drug solution was added to achieve a final concentration of 20 μM. The plates were incubated in a microplate reader (BioTek Synergy H1) at 37 °C with continuous shaking for 6 h. OD600 and mScarlet fluorescence were recorded throughout the incubation.
For analysis of the effect of anti-cancer compounds on stationary phase- and regrowing bacteria, the cultures were incubated for 24 h at 37 °C with shaking at 200 rpm in Erlenmeyer flasks. […] The samples were incubated for 24 h at 37 °C in standing 1.5 ml tubes. Before and after the drug treatment, 25 μl aliquots were taken and diluted by mixing with 175 μl PBS. OD600 and mScarlet fluorescence were recorded using a microplate reader (BioTek Synergy H1).
After the treatment, stationary-phase bacteria were harvested by centrifugation at 5000 × g for 5 min at 20 °C, washed twice with PBS, and resuspended in 475 μl PBS.

As usually defined, the EC50 is the concentration at which the effect is half-maximal. Regarding `Cn1c(COP(=O)(NCCBr)NCCBr)cnc1[N+](=O)[O-]` [Evofosfamide], the “OD600 at 8hr, Mean” value in assay [1] (S. aureus, 0.1 μM) was 0.802; in assay [1] (S. aureus, 0.5 μM) it was 0.751; in assay [1] (S. aureus, 2.5 μM) it was 0.502; in assay [1] (S. aureus, 10 μM), 0.107. In assay [1] (Staphylococcus aureus, DSM2569, pH 7.4), this compound gave an EC50 of 2660 nM. Besides, the “Log10(CFU/ml), Replicate #1” value in assay [2] (S. aureus, 0.1 μM) is 9.580 Log10(CFU/ml); in assay [2] (S. aureus, 0.5 μM), 9.362 Log10(CFU/ml); in assay [2] (S. aureus, 2.5 μM) it was 8.863 Log10(CFU/ml); in assay [2] (S. aureus, 10 μM), 5.954 Log10(CFU/ml). Moreover, the “Log10(CFU/ml), Replicate #2” value in assay [2] (S. aureus, 0.1 μM) was 8.996 Log10(CFU/ml); in assay [2] (S. aureus, 0.5 μM) it was 9.017 Log10(CFU/ml); in assay [2] (S. aureus, 2.5 μM) it was 8.724 Log10(CFU/ml); in assay [2] (S. aureus, 10 μM), 5.845 Log10(CFU/ml). The “Log10(CFU/ml), Replicate #3” value is 9.049 Log10(CFU/ml) in assay [2] (S. aureus, 0.1 μM); 8.881 Log10(CFU/ml) in assay [2] (S. aureus, 0.5 μM); 8.663 Log10(CFU/ml) in assay [2] (S. aureus, 2.5 μM); 5.748 Log10(CFU/ml) in assay [2] (S. aureus, 10 μM). Further, the “Δlog10(CFU/ml)” value in assay [2] (S. aureus, 0.1 μM) is reported as -0.111 log10(CFU/ml); in assay [2] (S. aureus, 0.5 μM) it was 0.011 log10(CFU/ml); in assay [2] (S. aureus, 2.5 μM), 0.347 log10(CFU/ml); in assay [2] (S. aureus, 10 μM) it was 3.248 log10(CFU/ml). In assay [2] (at 10 µM, 24 h treatment), the “reduction of non-growing S. aureus” value is “below the limit of detection”. Moreover, in assay [3] (20 μM), the “induction of the SOS response in growing UPEC cultures” value is listed as “induced the SOS response”. Further, in assay [3] (20 μM, LPM pH 5.5, Fig. S7C,D), the “growth inhibition of growing UPEC” value is listed as “only a slight growth inhibition”.

Regarding `CC1COc2c(N3CCN(C)CC3)c(F)cc3c(=O)c(C(=O)O)cn1c23` (centres unmarked) [Ofloxacin], the “Regrowth, OD600 at 6h or 8h after dilution into drug-free medium” value in assay [1] (S. aureus, concentration 0.1) is 0.643; in assay [1] (S. aureus, concentration 0.5), 0.590; in assay [1] (S. aureus, concentration 2.5), 0.519; in assay [1] (S. aureus, concentration 10), 0.417. The EC50 in assay [1] (Staphylococcus aureus, DSM2569, S. aureus, regrowth delay of non-growing bacteria, 1:4 CA-MHB pH 7.4, 24 h treatment, OD600 8 h after dilution, read-out: EC50) was determined as 14300 nM. Besides, the “log10(CFU/ml) after treatment” value is 9.279 log10(CFU/ml) and 9.041 log10(CFU/ml) and 9.086 log10(CFU/ml) in assay [2] (S. aureus, concentration 0.1); 9.301 log10(CFU/ml) and 9.049 log10(CFU/ml) and 8.462 log10(CFU/ml) in assay [2] (S. aureus, concentration 0.5); 9.230 log10(CFU/ml) and 9.093 log10(CFU/ml) and 8.740 log10(CFU/ml) in assay [2] (S. aureus, concentration 2.5); 9.447 log10(CFU/ml) and 8.924 log10(CFU/ml) and 8.839 log10(CFU/ml) in assay [2] (S. aureus, concentration 10). In addition, the “SOS induction during recovery of treated non-growing UPEC” value in assay [3] (10 μM, 24 h, then washed and diluted in CA-MHB, single control experiment) is listed as “SOS induction during recovery”.

Take Bleomycin: the “OD600 at 8hr, Mean” value in assay [1] (S. aureus, 0.1 μM) worked out at 0.622; in assay [1] (S. aureus, 0.5 μM), 0.595; in assay [1] (S. aureus, 2.5 μM) it was 0.351; in assay [1] (S. aureus, 10 μM) it was 0.129. The EC50 in assay [1] (S. aureus, regrowth delay of non-growing bacteria, 1:4 CA-MHB pH 7.4, 24 h treatment, OD600 8 h after dilution, read-out: EC50) is 2560 nM. Also, the “Log10(CFU/ml), Replicate #1” value in assay [2] was 6.114 Log10(CFU/ml) and 7.898 Log10(CFU/ml) and 8.934 Log10(CFU/ml) and 8.881 Log10(CFU/ml). Moreover, the “Log10(CFU/ml), Replicate #2” value in assay [2] is 6.845 Log10(CFU/ml) and 8.447 Log10(CFU/ml) and 8.959 Log10(CFU/ml) and 9.255 Log10(CFU/ml). The “Log10(CFU/ml), Replicate #3” value in assay [2] was 6.863 Log10(CFU/ml) and 8.431 Log10(CFU/ml) and 8.778 Log10(CFU/ml) and 8.944 Log10(CFU/ml). Moreover, the “Δlog10(CFU/ml)” value is recorded as 0.070 log10(CFU/ml) in assay [2] (S. aureus, 0.1 μM); 0.206 log10(CFU/ml) in assay [2] (S. aureus, 0.5 μM); 0.838 log10(CFU/ml) in assay [2] (S. aureus, 2.5 μM); 2.490 log10(CFU/ml) in assay [2] (S. aureus, 10 μM). Moreover, the “induction of the SOS response in growing UPEC cultures” value in assay [3] (20 μM) was “induced the SOS response”.
